Test results as given in PubChem BioAssay AID1259407 (Chemical Carcinogenesis Research Information System (CCRIS), 2018).
Active and inactive are the calls of the source. How the calls were made is not given here.

Test system: CCRIS mutagenicity, Ames/micronucleus/aberration tests
Experiment: CCRIS mutagenicity studies
[1] = Test System: AMES SALMONELLA TYPHIMURIUM, Strain/Indicator: TA98, Metabolic Activation: NONE, Method: STANDARD PLATE
[2] = Test System: AMES SALMONELLA TYPHIMURIUM, Strain/Indicator: TA98, Metabolic Activation: RAT, LIVER, S-9, AROCLOR 1254, Method: STANDARD PLATE
[3] = Test System: AMES SALMONELLA TYPHIMURIUM, Strain/Indicator: TA100, Metabolic Activation: NONE, Method: STANDARD PLATE
[4] = Test System: AMES SALMONELLA TYPHIMURIUM, Strain/Indicator: TA100, Metabolic Activation: RAT, LIVER, S-9, AROCLOR 1254, Method: STANDARD PLATE

With `ClC(Cl)C(Cl)(Cl)Cl` the mutagenic call (End Point: IN VITRO CHROMOSOMAL ABERRATIONS, Test System: CHINESE HAMSTER LUNG FIBROBLAST CELLS (CHL/IU), Metabolic Activation: RAT, LIVER, S-9, PHENOBARBITAL AND 5,6-BENZOFLAVONE) was “inactive; negative”, the mutagenic call (End Point: IN VITRO CHROMOSOMAL ABERRATIONS, Test System: CHINESE HAMSTER OVARY CELLS, Metabolic Activation: NONE) was “inactive; negative” and the mutagenic call (End Point: IN VITRO CHROMOSOMAL ABERRATIONS, Test System: CHINESE HAMSTER OVARY CELLS, Metabolic Activation: RAT, LIVER, S-9, AROCLOR 1254) was “inactive; negative”. The mutagenic call (Test System: MOUSE LYMPHOMA, Strain/Indicator: L5178Y (TK+/TK-), Metabolic Activation: NONE, Method: MICROWELL) was “active; positive” and the mutagenic call (Test System: MOUSE LYMPHOMA, Strain/Indicator: L5178Y (TK+/TK-), Metabolic Activation: S-9, Method: MICROWELL) was “inactive; negative”.
For `c1ccc2c(c1)c1cccc3ccc4cccc2c4c31`, the mutagenic call (End Point: IN VITRO MICRONUCLEUS, Test System: CHINESE HAMSTER V79 CELLS, Metabolic Activation: S-9) was “active; positive”, the mutagenic call (Test System: AMES SALMONELLA TYPHIMURIUM, Strain/Indicator: TA97, Metabolic Activation: NONE, Method: STANDARD PLATE) was “inactive; negative” and the mutagenic call (Test System: AMES SALMONELLA TYPHIMURIUM, Strain/Indicator: TA97, Metabolic Activation: RAT, LIVER, S-9, PCB, Method: STANDARD PLATE) was “active; positive”. The mutagenic call [1] was “inactive; negative”, the mutagenic call [2] was “active; positive” and the mutagenic call (Test System: AMES SALMONELLA TYPHIMURIUM, Strain/Indicator: TA98, Metabolic Activation: RAT, LIVER, S-9, PCB, Method: STANDARD PLATE) was “active; positive”. The mutagenic call (Test System: AMES SALMONELLA TYPHIMURIUM, Strain/Indicator: TA100, Metabolic Activation: MOUSE, LIVER, MICROSOMES, BENZO[E]PYRENE AND TCDD, Method: STANDARD PLATE) was “inactive; negative”, the mutagenic call [3] was “inactive; negative” and the mutagenic call [4] was “active; positive”. The mutagenic call (Test System: AMES SALMONELLA TYPHIMURIUM, Strain/Indicator: TA100, Metabolic Activation: RAT, LIVER, S-9, PCB, Method: STANDARD PLATE) was “active; positive”, the mutagenic call (Test System: E. COLI, Strain/Indicator: WP2 UVRA, Metabolic Activation: HAMSTER, LIVER, S-9, AROCLOR 1254, Method: STANDARD PLATE) was “inactive; negative” and the mutagenic call (Test System: E. COLI, Strain/Indicator: WP2 UVRA, Metabolic Activation: HAMSTER, LIVER, S-9, Method: STANDARD PLATE) was “inactive; negative”. The mutagenic call (Test System: E. COLI, Strain/Indicator: WP2 UVRA, Metabolic Activation: MOUSE, LIVER, S-9, AROCLOR 1254, Method: STANDARD PLATE) was “inactive; negative”, the mutagenic call (Test System: E. COLI, Strain/Indicator: WP2 UVRA, Metabolic Activation: MOUSE, LIVER, S-9, Method: STANDARD PLATE) was “inactive; negative” and the mutagenic call (Test System: E. COLI, Strain/Indicator: WP2 UVRA, Metabolic Activation: NONE, Method: STANDARD PLATE) was “inactive; negative”. For the same compound, the mutagenic call (Test System: E. COLI, Strain/Indicator: WP2 UVRA, Metabolic Activation: RAT, LIVER, S-9, AROCLOR 1254, Method: STANDARD PLATE) was “inactive; negative”, the mutagenic call (Test System: E. COLI, Strain/Indicator: WP2 UVRA, Metabolic Activation: RAT, LIVER, S-9, Method: STANDARD PLATE) was “inactive; negative” and the mutagenic call (Test System: MOUSE LYMPHOMA, Strain/Indicator: L5178Y (TK+/TK-), Metabolic Activation: NONE, Method: SUSPENSION/PLATE) was “inactive; negative”. The mutagenic call (Test System: MOUSE LYMPHOMA, Strain/Indicator: L5178Y (TK+/TK-), Metabolic Activation: RAT, LIVER, S-9, AROCLOR 1254, Method: SUSPENSION/PLATE) was “active; positive”, the mutagenic call (Test System: MOUSE LYMPHOMA, Strain/Indicator: L5178Y (TK+/TK-), Metabolic Activation: RAT, LIVER, S-9, Method: SUSPENSION/PLATE) was “inactive; negative” and the mutagenic call (Test System: UDS HUMAN CELLS, Strain/Indicator: THY INCORP (NON-S-PHASE), Metabolic Activation: RAT, LIVER, S-9, 3-METHYLCHOLANTHRENE, Method: LIQUID SCINTILLATION COUNTING) was “active; positive”.
With `Nc1cccc2ncc(F)cc12` the mutagenic call (Test System: AMES SALMONELLA TYPHIMURIUM, Strain/Indicator: TA100, Metabolic Activation: RAT, LIVER, S-9, PHENOBARBITAL AND 5,6-BENZOFLAVONE, Method: PREINCUBATION) was “active; positive”.
For `O=C1c2c(O)ccc3c2[C@H](c2ccc(O)c4c2[C@H]3[C@H]2O[C@H]2C4=O)[C@H]2O[C@@H]12`, the mutagenic call [1] was “active; positive”, the mutagenic call [2] was “active; positive” and the mutagenic call (Test System: AMES SALMONELLA TYPHIMURIUM, Strain/Indicator: TA98, Method: STANDARD PLATE) was “active; positive”. For the same compound, the mutagenic call [3] was “active; positive”, the mutagenic call [4] was “active; positive” and the mutagenic call (Test System: AMES SALMONELLA TYPHIMURIUM, Strain/Indicator: TA1537, Metabolic Activation: NONE, Method: STANDARD PLATE) was “active; positive”. The mutagenic call (Test System: AMES SALMONELLA TYPHIMURIUM, Strain/Indicator: TA1537, Metabolic Activation: RAT, LIVER, S-9, AROCLOR 1254, Method: STANDARD PLATE) was “active; positive”.
With `CC(=O)Nc1cc(O)c2ccc3cccc4ccc1c2c34` the mutagenic call (Test System: AMES SALMONELLA TYPHIMURIUM, Strain/Indicator: TA98(1,8-DNP6), Metabolic Activation: NONE, Method: STANDARD PLATE) was “active; positive”, the mutagenic call (Test System: AMES SALMONELLA TYPHIMURIUM, Strain/Indicator: TA98(1,8-DNP6), Metabolic Activation: RAT, LIVER, S-9, AROCLOR 1254, Method: STANDARD PLATE) was “active; positive” and the mutagenic call [1] was “active; positive”. The mutagenic call [2] was “active; positive”, the mutagenic call (Test System: AMES SALMONELLA TYPHIMURIUM, Strain/Indicator: YG1024, Metabolic Activation: NONE, Method: STANDARD PLATE) was “active; positive” and the mutagenic call (Test System: AMES SALMONELLA TYPHIMURIUM, Strain/Indicator: YG1024, Metabolic Activation: RAT, LIVER, S-9, AROCLOR 1254, Method: STANDARD PLATE) was “active; positive”.
